In US20250145585A1, “HETEROCYCLIC INHIBITORS OF IGF-1R FOR TREATMENT OF DISEASE” (HORIZON THERAPEUTICS IRELAND DAC, priority 2023, published 2025):

Target: T1, IGF-1R (Homo sapiens, UniProt P08069)
T1 construct: expressed in transfected cells
Test: Example B-1: IGF-1R Assay (PC3 cells stimulated with IGF1, AlphaLISA on cell lysates)
Assay type: cell-based
Conditions: compound two hours, IGF1 200 ng/mL for 30 min, read-out: IC50, Biological Activity against IGF-1R (Table B1)
Description: 50K PC3 cells were seeded on day 1 in 50 μL of media in 96-well plate and incubated overnight at 37° C., 5% CO2. On day 2, all cells were expected to be at 80-90% confluency. Cells were starved for two hours by changing the media to 90 μL of EMEM serum-free media and incubated for 2 hours. Next, cells were treated with 10 μL of 10× concentrated and 3× serially diluted compounds for two hours. It makes 1× of compounds in 100 μL media. This was followed by stimulation of cells with 11×IGF1 for 30 min in 10 μL of serum-free EMEM media at the final concentration of 200 ng/mL.
The media was removed and replaced by 50 μL of 1× lysis buffer from the AlphaLISA kit (with 1× of cOmplete™ protease inhibitor). The plates were sealed, and cells were allowed to lyse for 10 min in the shaker before storing the plate at −20° C. until used. The AlphaLISA assay with processed cell lysates were performed as described in the protocol. Briefly, 10 μL of the undiluted sample were loaded to 384 well Optiplates and 5 μL of the acceptor mix (as described in the AlphaLISA kit) was added to each well. The plates were sealed and briefly vortexed followed by the incubation at RT for 3 hours. In the dark, 5 μL of donor mix was added to each well. All plates were sealed and stored at RT overnight. The plates were read in EnVision reader using standard AlphaLISA settings.
Compound activity was analyzed using CBIS data analysis suite (Cheminnovation, CA). Percentage inhibition was calculated using the following formula: % I-hibition=100%×(1−(mea−RLU of test sample−mean RLU of vehicle control)/(mean-RLU of EC80 control−mean RLU of vehicle control)). The activity for representative examples of the invention is shown in the following table, wherein A: IC50≤500 nM; B: 500 nM<IC50≤2 μM; C: 2 μM<IC50≤10 μM; D: IC50>10 μM.

T1 sequence (P08069 31-1367): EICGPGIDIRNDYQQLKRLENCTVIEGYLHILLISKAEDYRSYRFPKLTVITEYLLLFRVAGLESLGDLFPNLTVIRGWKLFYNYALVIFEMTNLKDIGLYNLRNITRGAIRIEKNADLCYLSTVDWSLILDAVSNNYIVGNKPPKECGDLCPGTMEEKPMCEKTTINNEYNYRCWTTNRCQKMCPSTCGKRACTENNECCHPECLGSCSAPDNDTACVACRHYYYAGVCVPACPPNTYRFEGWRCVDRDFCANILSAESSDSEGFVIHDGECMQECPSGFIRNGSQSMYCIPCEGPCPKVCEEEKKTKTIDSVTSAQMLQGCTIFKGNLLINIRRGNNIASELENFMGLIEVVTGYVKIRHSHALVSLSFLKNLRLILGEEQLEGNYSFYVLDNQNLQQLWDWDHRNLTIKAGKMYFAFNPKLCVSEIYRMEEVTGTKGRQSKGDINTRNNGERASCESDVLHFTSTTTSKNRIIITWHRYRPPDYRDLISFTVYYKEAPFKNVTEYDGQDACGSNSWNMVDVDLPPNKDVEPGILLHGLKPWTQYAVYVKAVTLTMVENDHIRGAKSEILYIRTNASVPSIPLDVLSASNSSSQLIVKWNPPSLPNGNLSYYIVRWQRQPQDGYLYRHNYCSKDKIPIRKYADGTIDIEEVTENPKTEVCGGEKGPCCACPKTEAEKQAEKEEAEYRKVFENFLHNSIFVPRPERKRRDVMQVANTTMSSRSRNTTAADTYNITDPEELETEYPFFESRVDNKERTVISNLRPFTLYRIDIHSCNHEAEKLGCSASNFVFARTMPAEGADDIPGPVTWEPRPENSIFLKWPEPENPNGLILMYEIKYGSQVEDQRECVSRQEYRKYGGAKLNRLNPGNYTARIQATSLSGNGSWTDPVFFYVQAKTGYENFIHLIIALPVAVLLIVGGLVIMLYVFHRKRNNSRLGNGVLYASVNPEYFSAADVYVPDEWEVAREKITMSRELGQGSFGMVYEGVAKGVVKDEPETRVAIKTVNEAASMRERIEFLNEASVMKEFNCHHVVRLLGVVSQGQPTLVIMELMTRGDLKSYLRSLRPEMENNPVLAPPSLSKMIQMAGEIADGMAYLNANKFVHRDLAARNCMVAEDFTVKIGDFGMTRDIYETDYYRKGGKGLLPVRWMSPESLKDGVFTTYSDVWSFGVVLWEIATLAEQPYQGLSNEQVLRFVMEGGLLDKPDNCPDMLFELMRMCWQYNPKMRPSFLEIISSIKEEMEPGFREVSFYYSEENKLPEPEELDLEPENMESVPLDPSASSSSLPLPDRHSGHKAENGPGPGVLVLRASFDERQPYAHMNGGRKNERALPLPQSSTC

Row | IC50 [nM] | SMILES
1 | ≤ 500 | CC1(C)C(=O)N(c2ccc(SC(F)(F)F)cc2)C(=O)N1Cc1ccnc(NC(=O)C2CC3(CNC3)C2)c1 [Compound 302, N-(4-((5,5-dimethyl-2,4-dioxo-3-(4-((trifluoromethyl)thio)phenyl)imidazolidin-1-yl)methyl)pyridin-2-yl)-2-azaspiro[3.3]heptane-6-carboxamide]
2 | ≤ 500 | COC[C@H](C)Nc1cc(CN2C(=O)N(c3ccc(C4(C(F)(F)F)CC4)cc3)C(=O)C2(C)C)ccn1 [Compound 105, (S)-1-((2-((1-methoxypropan-2-yl)amino)pyridin-4-yl)methyl)-5,5-dimethyl-3-(4-(1-(trifluoromethyl)cyclopropyl)phenyl) imidazolidine-2,4-dione]
3 | 500 to 2000 | COCC(C)(C)Nc1cc(CN2C(=O)N(c3ccc(C(C)(C)C)cc3)C(=O)C2(C)C)ccn1 [Compound 274, 3-(4-(tert-butyl)phenyl)-1-((2-((1-methoxy-2-methylpropan-2-yl)amino)pyridin-4-yl)methyl)-5,5-dimethylimidazolidine-2,4-dione]
4 | ≤ 500 | Cc1[nH]c2nccc(CN3C(=O)N(c4ccc(C5(C(F)(F)F)CC5)cc4)C(=O)C3(C)C)c2c1Cl [Compound 10, 1-((3-chloro-2-methyl-1H-pyrrolo[2,3-b]pyridin-4-yl)methyl)-5,5-dimethyl-3-(4-(1-(trifluoromethyl)cyclopropyl)phenyl) imidazolidine-2,4-dione]
5 | ≤ 500 | CC1(C)C(=O)N(c2ccc(C3(C(F)(F)F)CC3)cc2)C(=O)N1Cc1ccnc2[nH]cc(Br)c12 [Compound 8, 1-((3-bromo-1H-pyrrolo[2,3-b]pyridin-4-yl)methyl)-5,5-dimethyl-3-(4-(1-(trifluoromethyl)cyclopropyl)phenyl)imidazolidine-2,4-dione]
6 | > 10000 | CC1(C)C(=O)N(c2ccc(SC(F)(F)F)cc2)C(=O)N1Cc1ccnc2[nH]c(C3CC3)cc12 [Compound 15, 1-((2-cyclopropyl-1H-pyrrolo[2,3-b]pyridin-4-yl)methyl)-5,5-dimethyl-3-(4-((trifluoromethyl)thio)phenyl)imidazolidine-2,4-dione]
7 | 500 to 2000 | CC1(C)C(=O)N(c2ccc(SC(F)(F)F)cc2)C(=O)N1Cc1ccnc(NC(=O)NC23CCC(CC2)C3)c1 [Compound 304, 1-(bicyclo[2.2.1]heptan-1-yl)-3-(4-((5,5-dimethyl-2,4-dioxo-3-(4-((trifluoromethyl)thio)phenyl)imidazolidin-1-yl)methyl)pyridin-2-yl)urea]
8 | ≤ 500 | CN(C)C(=O)c1cncc(Nc2cc(CN3C(=O)N(c4ccc(SC(F)(F)F)cc4)C(=O)C3(C)C)ccn2)c1 [Compound 359, 5-((4-((5,5-dimethyl-2,4-dioxo-3-(4-((trifluoromethyl)thio)phenyl)imidazolidin-1-yl)methyl)pyridin-2-yl)amino)-N,N-dimethylnicotinamide]
9 | 2000 to 10000 | CC(C)[C@@H]1C(=O)N(c2ccc(SC(F)(F)F)cc2)C(=O)N1Cc1ccnc(N)c1 [Compound 295, (R)-1-((2-aminopyridin-4-yl)methyl)-5-isopropyl-3-(4-((trifluoromethyl)thio)phenyl)imidazolidine-2,4-dione]
10 | ≤ 500 | CC(C)(C)c1ccc(N2C(=O)N(Cc3ccnc(-c4ccn[nH]4)c3)C(C)(C)C2=O)cc1 [Compound 347, 1-((2-(1H-pyrazol-5-yl)pyridin-4-yl)methyl)-3-(4-(tert-butyl)phenyl)-5,5-dimethylimidazoline-2,4-dione]
11 | > 10000 | Nc1cc(CN2C(=O)N(c3ccc(SC(F)(F)F)cc3)C(=O)[C@@H]2c2ccccc2)ccn1 [Compound 294, (S)-1-((2-aminopyridin-4-yl)methyl)-5-phenyl-3-(4-((trifluoromethyl)thio)phenyl)imidazolidine-2,4-dione]
12 | ≤ 500 | CNC(=O)Nc1cc(CN2C(=O)N(c3ccc(SC(F)(F)F)cc3)C(=O)C2(C)C)ccn1 [Compound 361, 1-(4-((5,5-dimethyl-2,4-dioxo-3-(4-((trifluoromethyl)thio)phenyl)imidazolidin-1-yl)methyl)pyridin-2-yl)-3-methylurea]
13 | ≤ 500 | CC1(C)C(=O)N(c2ccc(SC(F)(F)F)cc2)C(=O)N1Cc1ccnc(NC(=O)NC2CCOC2)c1 (centres unmarked) [Compound 303, 1-(4-((5,5-dimethyl-2,4-dioxo-3-(4-((trifluoromethyl)thio)phenyl)imidazolidin-1-yl)methyl)pyridin-2-yl)-3-(tetrahydrofuran-3-yl)urea]
14 | ≤ 500 | CC1(C)C(=O)N(c2ccc(SC(F)(F)F)cc2)C(=O)N1Cc1ccnc(NC2CCC2)c1 [Compound 378, 1-((2-(cyclobutylamino)pyridin-4-yl)methyl)-5,5-dimethyl-3-(4-((trifluoromethyl)thio)phenyl) imidazolidine-2,4-dione]
15 | ≤ 500 | CC1(C)C(=O)N(c2ccc(SC(F)(F)F)cc2)C(=O)N1Cc1ccnc(NC2CCCC2)c1 [Compound 369, 1-((2-(cyclopentylamino)pyridin-4-yl)methyl)-5,5-dimethyl-3-(4-((trifluoromethyl)thio)phenyl) imidazolidine-2,4-dione]
16 | 2000 to 10000 | CC1(C)C(=O)N(c2ccc(-c3nccs3)cc2)C(=O)N1Cc1ccnc(N)c1 [Compound 81, 1-((2-aminopyridin-4-yl)methyl)-5,5-dimethyl-3-(4-(thiazol-2-yl)phenyl)imidazolidine-2,4-dione]
17 | ≤ 500 | CC1(C)CC(Nc2cc(CN3C(=O)N(c4ccc(C5(C(F)(F)F)CC5)cc4)C(=O)C3(C)C)ccn2)CCO1 (centres unmarked) [Compound 113, 1-((2-((2,2-dimethyltetrahydro-2H-pyran-4-yl)amino)pyridin-4-yl)methyl)-5,5-dimethyl-3-(4-(1-(trifluoromethyl)cyclopropyl)phenyl) imidazolidine-2,4-dione]
18 | > 10000 | Nc1cc(CN2C(=O)N(c3ccc(SC(F)(F)F)cc3)C(=O)[C@@H]2C2CCCCC2)ccn1 [Compound 296, (S)-1-((2-aminopyridin-4-yl)methyl)-5-cyclohexyl-3-(4-((trifluoromethyl)thio)phenyl)imidazolidine-2,4-dione]
19 | ≤ 500 | CC(C)Nc1cc(CN2C(=O)N(c3ccc(C(C)(C)C)cc3)C(=O)C2(C)C)ccn1 [Compound 263, 3-(4-(tert-butyl)phenyl)-1-((2-(isopropylamino)pyridin-4-yl)methyl)-5,5-dimethylimidazolidine-2,4-dione]
20 | 500 to 2000 | CC1(C)C(=O)N(c2ccc(SC(F)(F)F)cc2)C(=O)N1Cc1ccnc(Nc2cccc(O)n2)c1 [Compound 362, 1-((2-((6-hydroxypyridin-2-yl)amino)pyridin-4-yl)methyl)-5,5-dimethyl-3-(4-((trifluoromethyl)thio)phenyl) imidazolidine-2,4-dione]
21 | ≤ 500 | CC1(C)C(=O)N(c2ccc([S+]([O-])C(F)(F)F)cc2)C(=O)N1Cc1ccnc(N)c1 (centres unmarked) [Compound 393, 1-((2-aminopyridin-4-yl)methyl)-5,5-dimethyl-3-(4-((trifluoromethyl)sulfinyl)phenyl) imidazolidine-2,4-dione]
22 | ≤ 500 | CC(C)(C)c1ccc(N2C(=O)N(Cc3ccnc4[nH]ccc34)C(C)(C)C2=O)cc1 [Compound 4]
23 | ≤ 500 | CCC1(C)C(=O)N(c2ccc(SC(F)(F)F)cc2)C(=O)N1Cc1ccnc(N)c1 (centres unmarked) [Compound 297, 1-((2-aminopyridin-4-yl)methyl)-5-ethyl-5-methyl-3-(4-((trifluoromethyl)thio)phenyl)imidazolidine-2,4-dione]
